“Also recorded” adds a separate entry of the source.
Key:
[1] = system: CD34+ mobilized peripheral blood (mPB) cells; assay: Ex vivo expansion of mobilized peripheral blood-derived CD34+ and CD34+CD45RA− cells (FIG. 5A); assay type: cell-based, human
Excerpt: FIG. 5: A) Compound 1 expands mobilized peripheral blood-derived CD34+ and CD34+CD45RA− cell populations ex vivo. […] This observation was enhanced with the co-treatment with SR1.
[…]. The level of expansion is the same whether cultures are initiated with Compound 1, SR1, Compound 1+SR1, or control DMSO. […] […].

CD34+ mPB cells = assay: Colony-forming units in culture (CFU-C) assay in methylcellulose; assay type: cell-based, human; conditions: 1000 CD34+ mPB cells treated for 10 days
Procedure: The ex vivo functionality of expanded cells was tested using the conventional colony-forming units in culture (CFU-C) assay. Untreated cells or cells incubated with DMSO, positive control or a compound of the invention were plated in methylcellulose medium in conventional conditions. As an example, Compound 1 (Table 1, Example 1) expands the number of multipotent hematopoietic progenitors.

[2] = system: Mobilized peripheral blood CD34(+) cells; assay: Growth factor (Flt3, SCF, TPO) requirement / mitogen test (FIG. 3); assay type: cell-based, human
Procedure: FIG. 3: Flt3, SCF, and TPO are required for compound 1 mediated stem cell expansion. Mobilized peripheral blood CD34(+) cells were cultured for 7 days in the presence or absence of the growth factors (Flt3+SCF+TPO).
This indicate that akin to SR1, Compound 1's effect on maintenance of primitive HSC phenotype ex vivo is not due to a mitogenic effect on this population but rather on the prevention of cell differentiation.

[3] = system: CD34+ mPB cells transplanted in NSG mice; assay: Engraftment of cultured CD34+ mPB cells in NSG mice
[4] = outcome of 2,000,000 and 500,000 cells cultured 10 days, 8 weeks post transplantation

## COC(=O)c1ccc2c(c1)[nH]c1ncnc(NCCCN3CCCCC3)c12 [Compound 1, Methyl 4-((3-(piperidin-1-yl)propyl)amino)-9H-pyrimido[4,5-b]indole-7-carboxylate]
[1]; 12-days culture
  expansion of CD34+CD45RA− cell subpopulation: about ten fold
  total cell count increase above the input: about 20 fold
[1]; FIG. 5A
  CD34+ population vs DMSO: more than twice
  CD34+CD45RA− population vs DMSO: more than three times
  total cell count vs DMSO: the same
CD34+ mPB cells
  increase in multilineage GEMM colonies compared to control cells: 10 fold
  increase in multilineage GEMM colonies over input cells: 5 fold
[2]
  induction of cell proliferation in the absence of growth factors (Flt3, TPO, SCF): not able to induce cell proliferation
[2]; 7 days, with or without Flt3+SCF+TPO
  CD34+CD45RA− cell count in the absence of any of the growth factors: lower
[3]; cells cultured ten days, outcome of 50,000 and 500,000 cells, 13 week post-transplantation
  human hematopoietic engraftment (human CD45+ cells in BM): superior to SR1; also recorded: engrafted better than that of DMSO
[3]; [4]
  engraftment of NSG mice (human CD45): able to engraft NSG mice
  reconstitution of human myeloid and lymphoid compartments in bone marrow: positive for human CD33+ and CD19+

Source: patent US9409906B2, “Pyrimido[4,5-B]indole derivatives and use thereof in the expansion of hematopoietic stem cells” (UNIVERSITÉ DE MONTRÉAL, priority 2012, dated 2016)
